Source: the NIST ThermoML archive (doi:10.1021/acs.jced.7b00766)
± gives the expanded uncertainty stated by the source. Each block holds one compound with its values, some of them ahead of it.

Conditions: Liquid, Ebulliometric method (Recirculating still)

SMILES: Nc1ccccc1 [aniline]
vapor or sublimation pressure (450.25 K): 85 ± 1 kPa

vapor or sublimation pressure (385.75 K): 85 ± 1 kPa
SMILES: CCCCO [butan-1-ol]

vapor or sublimation pressure (365.65 K): 85 ± 1 kPa
SMILES: CCCCCCC [heptane]

vapor or sublimation pressure (333.15 K): 85 ± 1 kPa
SMILES: CO [methanol]
